Each block holds one molecule with its values, some of them ahead of it.
How the values were obtained:
mA2AAR = mA2AAR (Mus musculus, UniProt Q60613); settings: read-out: Affinity (Ki) mA2A; ref Melman et al.[21]; cited from earlier work
mA1AR = biological target: T1, mA1AR (Mus musculus, UniProt Q60612); settings: read-out: Affinity (Ki) mA1; ref Melman et al.[21]; cited from earlier work
T1 sequence (Q60612 1-326): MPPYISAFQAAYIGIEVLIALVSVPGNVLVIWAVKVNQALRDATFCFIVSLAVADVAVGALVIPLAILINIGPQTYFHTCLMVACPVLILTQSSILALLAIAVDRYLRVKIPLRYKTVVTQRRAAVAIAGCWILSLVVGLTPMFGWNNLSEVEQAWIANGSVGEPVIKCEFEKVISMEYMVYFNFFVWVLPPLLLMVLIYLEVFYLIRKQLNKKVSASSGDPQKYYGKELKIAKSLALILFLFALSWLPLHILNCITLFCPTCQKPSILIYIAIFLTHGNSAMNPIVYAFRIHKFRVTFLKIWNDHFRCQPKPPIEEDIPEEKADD

mA3AR = biological target: T2, mA3AR (Mus musculus, UniProt Q61618); settings: read-out: Affinity (Ki) mA3; ref Melman et al.[21]; cited from earlier work
T2 sequence (Q61618 1-319): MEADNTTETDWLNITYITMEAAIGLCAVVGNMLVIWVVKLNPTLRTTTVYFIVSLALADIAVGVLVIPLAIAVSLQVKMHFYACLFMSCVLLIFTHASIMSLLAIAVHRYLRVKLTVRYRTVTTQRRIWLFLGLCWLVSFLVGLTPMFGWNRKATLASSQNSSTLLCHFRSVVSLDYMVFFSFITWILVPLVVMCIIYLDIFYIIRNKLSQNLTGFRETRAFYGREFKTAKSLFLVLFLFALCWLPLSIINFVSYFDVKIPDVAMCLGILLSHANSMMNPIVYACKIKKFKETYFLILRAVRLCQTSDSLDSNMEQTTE

hA1AR = biological target: T3, hA1AR (Homo sapiens, UniProt P30542); experiment: Radioligand binding at hA1AR
T3 sequence (P30542 1-326): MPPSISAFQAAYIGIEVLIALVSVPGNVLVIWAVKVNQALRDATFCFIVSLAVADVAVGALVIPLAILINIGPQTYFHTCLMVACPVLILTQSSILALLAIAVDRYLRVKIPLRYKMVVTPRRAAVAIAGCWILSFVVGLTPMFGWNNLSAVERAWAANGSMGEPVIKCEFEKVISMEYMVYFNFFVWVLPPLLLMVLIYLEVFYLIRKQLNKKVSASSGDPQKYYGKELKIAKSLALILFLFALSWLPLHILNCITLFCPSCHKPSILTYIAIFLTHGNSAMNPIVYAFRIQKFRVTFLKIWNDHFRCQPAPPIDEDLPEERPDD

hA2AAR = hA2AAR (Homo sapiens, UniProt P29274); experiment: Radioligand binding at hA2AAR
hA3AR [1] = biological target: T4, hA3AR (Homo sapiens, UniProt P0DMS8); experiment: Radioligand binding at hA3AR
T4 sequence (P0DMS8 1-318): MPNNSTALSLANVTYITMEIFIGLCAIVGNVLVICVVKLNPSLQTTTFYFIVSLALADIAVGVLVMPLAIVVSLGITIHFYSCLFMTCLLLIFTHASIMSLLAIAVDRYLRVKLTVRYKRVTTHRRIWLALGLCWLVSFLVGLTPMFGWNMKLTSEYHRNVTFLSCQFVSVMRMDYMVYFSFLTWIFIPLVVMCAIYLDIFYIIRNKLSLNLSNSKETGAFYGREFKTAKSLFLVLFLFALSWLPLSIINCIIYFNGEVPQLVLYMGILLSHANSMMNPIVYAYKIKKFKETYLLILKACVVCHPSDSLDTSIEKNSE

hA3AR [2] = biological target: T4, hA3AR; format: cell-based; settings: at 10 μM

Sequence of hA2AAR (P29274 whole entry): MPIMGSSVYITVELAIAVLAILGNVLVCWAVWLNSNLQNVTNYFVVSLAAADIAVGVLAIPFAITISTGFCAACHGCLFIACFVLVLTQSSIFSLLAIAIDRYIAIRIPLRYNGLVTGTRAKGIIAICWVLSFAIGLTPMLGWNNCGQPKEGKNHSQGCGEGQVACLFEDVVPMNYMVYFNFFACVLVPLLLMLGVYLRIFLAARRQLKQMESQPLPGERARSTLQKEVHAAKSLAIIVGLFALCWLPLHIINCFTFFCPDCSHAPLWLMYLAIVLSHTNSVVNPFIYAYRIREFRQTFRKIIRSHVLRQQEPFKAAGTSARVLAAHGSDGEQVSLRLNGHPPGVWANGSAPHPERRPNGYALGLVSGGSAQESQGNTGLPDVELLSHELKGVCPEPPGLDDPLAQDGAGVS
Sequence of mA2AAR (Q60613 whole entry): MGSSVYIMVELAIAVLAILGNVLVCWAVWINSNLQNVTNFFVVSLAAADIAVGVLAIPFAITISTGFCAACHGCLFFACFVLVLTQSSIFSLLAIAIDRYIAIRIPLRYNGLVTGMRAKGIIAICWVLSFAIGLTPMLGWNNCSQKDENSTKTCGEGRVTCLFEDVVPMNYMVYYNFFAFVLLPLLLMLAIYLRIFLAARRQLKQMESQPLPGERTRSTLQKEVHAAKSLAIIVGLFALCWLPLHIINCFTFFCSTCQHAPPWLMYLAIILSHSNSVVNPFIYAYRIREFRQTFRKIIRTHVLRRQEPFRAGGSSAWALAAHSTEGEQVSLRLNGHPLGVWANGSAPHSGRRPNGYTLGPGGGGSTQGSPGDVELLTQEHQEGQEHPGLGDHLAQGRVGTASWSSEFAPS

Ki (hA3AR [1]; Affinity (Ki) hA3, [125I]I-AB-MECA, CHO cells, n = 3–5): ~0.6 nM
Structure (SMILES): CNC(=O)[C@@]12C[C@@H]1[C@@H](n1cnc3c(NC)nc(C#Cc4ccc(F)cc4)nc31)[C@H](O)[C@@H]2O [Compound 13, (1S,2R,3S,4R,5S)-4-(2-((4-Fluorophenyl)ethynyl)-6-(methylamino)-9H-purin-9-yl)-2,3-dihydroxy-N-methylbicyclo[3.1.0]hexane-1-carboxamide]

activity at A1 (hA1AR): inactive
activity at A2A (hA2AAR): inactive
Structure (SMILES): CNC(=O)[C@@]12C[C@@H]1[C@@H](n1cnc3c(NCc4cccc(Cl)c4)nc(C#Cc4ccc(-c5ccccc5)cc4)nc31)[C@H](O)[C@@H]2O [Compound 34, (1S,2R,3S,4R,5S)-4-(2-(Biphenyl-4-ylethynyl)-6-(3-chlorobenzylamino)-9H-purin-9-yl)-2,3-dihydroxy-N-methylbicyclo[3.1.0]hexane-1-carboxamide]

Second part, the molecule before the results:

Structure (SMILES): CNC(=O)[C@@]12C[C@@H]1[C@@H](n1cnc3c(NCc4cccc(I)c4)nc(Cl)nc31)[C@H](O)[C@@H]2O [Compound 4]
Ki (mA2AAR): 5.35 µM
Ki (mA1AR): 7.32 ± 1.5 nM
Ki (mA3AR): 0.8 ± 0.14 nM

Structure (SMILES): CNC(=O)[C@@]12C[C@@H]1[C@@H](n1cnc3c(NC)nc(C#Cc4ccccc4)nc31)[C@H](O)[C@@H]2O [Compound 9, (1S,2R,3S,4R,5S)-2,3-Dihydroxy-N-methyl-4-(6-(methylamino)-2-(phenylethynyl)-9H-purin-9-yl)bicyclo[3.1.0]hexane-1-carboxamide]
inhibition at 10 µM (hA1AR; read-out: % inhibition of radioligand binding hA1, at 10 μM, n = 3): < 20%
inhibition at 10 µM (hA2AAR; read-out: % inhibition of radioligand binding hA2A, at 10 μM, n = 3): < 20%

Structure (SMILES): CNC(=O)[C@@]12C[C@@H]1[C@@H](n1cnc3c(NC)nc(C#Cc4ccc(C(C)(C)C)cc4)nc31)[C@H](O)[C@@H]2O [Compound 22, (1S,2R,3S,4R,5S)-4-(2-((4-tert-Butylphenyl)ethynyl)-6-(methylamino)-9H-purin-9-yl)-2,3-dihydroxy-N-methylbicyclo[3.1.0]hexane-1-carboxamide]
reduction of A3AR binding affinity compared to the H analogue 9 (hA3AR [1]): 12 fold

Structure (SMILES): CNC(=O)[C@@]12C[C@@H]1[C@@H](n1cnc3c(NCc4cccc(Cl)c4)nc(C#Cc4ccccc4)nc31)[C@H](O)[C@@H]2O [Compound 27, (1S,2R,3S,4R,5S)-4-(6-(3-Chlorobenzylamino)-2-(phenylethynyl)-9H-purin-9-yl)-2,3-dihydroxy-N-methylbicyclo[3.1.0]hexane-1-carboxamide]
Ki (hA1AR): > 10 µM

Structure (SMILES): CNC(=O)[C@@]12C[C@@H]1[C@@H](n1cnc3c(NCc4cccc(Cl)c4)nc(C#Cc4ccc(F)c(F)c4)nc31)[C@H](O)[C@@H]2O [Compound 31, (1S,2R,3S,4R,5S)-4-(6-(3-Chlorobenzylamino)-2-((3,4-difluorophenyl)ethynyl)-9H-purin-9-yl)-2,3-dihydroxy-N-methylbicyclo[3.1.0]hexane-1-carboxamide]
agonist type at the A3AR (hA3AR [2]): full agonist

From paper PMC3371665 (Journal of Medicinal Chemistry, 2012)
